System: lesions of telangiectatic melasma
Description: As is known, the increase in pigmentation occurs to a greater extent during the day, wherein the action of the light is an important causal factor.

For `Brc1c(NC2=NCCN2)ccc2nccnc12` [brimonidine], which “duration of effects in minimising the deterioration brought about by sunlight” value (applied in the morning) is on record?
The value was “up to 9 hours”.

What about the “improvement of the lesions of telangiectatic melasma” value (topical, following a period of 30 to 60 minutes from application) of the same compound?
Its value is “immediate and obvious improvement”.

And the “improvement in the hyperpigmentation of the skin of the melasma lesions” value (topical, minutes following application, patient (FIGS. 1-4))?
The value was “effective improvement in the hyperpigmentation”.

Source: US10744135B2, “Use of an active substance in the treatment of melasma” (priority 2016, dated 2020)
